Experimental findings from patent US10851080B2, “Methods of treatment using pyrrolidinyl urea, thiourea, guanidine and cyanoguanidine compounds” (Array BioPharma Inc., priority 2012, dated 2020) are described below.

In test [1] the target is His-tagged recombinant human TrkA (Homo sapiens (Human), UniProt P04629). The experiment in a line: TrkA LanthaScreen Eu Kinase Binding Assay. The conditions noted are these: averaged IC50, TrkA binding assay of Example A; read-out: TrkA Enzyme IC50. The method, then:
TrkA binding activity was determined in a TrkA LanthaScreen™ Eu Kinase Binding Assay. 5 nM His-tagged recombinant human TrkA (6HIS tagged cytoplasmic domain from Invitrogen, Catalog No. PV3144) was incubated with 4 nM Alexa-Fluor® Tracer 236 (Invitrogen Cat. No. PV5592), 2 nM biotinylated anti-His (Invitrogen Cat. No. PV6090), and 2 nM europium-labeled Streptavidin (Invitrogen Cat. No. PV5899), in buffer (25 mM MOPS, pH 7.5, 5 mM MgCl2, 0.005% Triton X-100). Three fold serial dilutions of compounds of the invention in DMSO were added to a final percentage of 2% DMSO. After 60-minute incubation at 22° C., the reaction was measured using the EnVision mutlimode plate reader (PerkinElmer) via TR-FRET dual wavelength detection at […]. The percent of control was calculated using a ratiometric emission factor. The IC50 values were determined by fitting a four parameter model to the percent of control data.
Table A provides averaged IC50 values for compounds of the invention when tested in the assay of Example A, where A represents an averaged IC50 value <100 nM.
Background: Time-resolved FRET reads energy transfer from a long-lived donor to a nearby acceptor.

For test [2], the system named is off-target kinases. The test is described as follows: KinaseProfiler full kinase panel (overall). It is filed as biochemical. The conditions noted are these: 10 μM; for activity against off-target kinases: full kinase panel; for selectivity for inhibiting TrkA versus other kinases in the panel: panel of about 230 kinases. The method, then: Two representative compounds (Example 2, 14) of the invention were tested for off-target kinase activity at a concentration of 10 μM by Millipore, Inc. in their KinaseProfiler™ service against all the kinases available in their full kinase panel. These compounds were run in duplicate at a concentration of ATP near the Km for each individual kinase according to Millipore's specifications. The results are shown in Table B. Data are reported as percent of control (POC) and are the average of the two replicates.
Such a drug profile would represent a safer approach to treating pain, inflammation, cancer and certain skin diseases than has been previously reported.

pIC50: −log10 of the molar value.

Chain of His-tagged recombinant human TrkA (P04629 440-796): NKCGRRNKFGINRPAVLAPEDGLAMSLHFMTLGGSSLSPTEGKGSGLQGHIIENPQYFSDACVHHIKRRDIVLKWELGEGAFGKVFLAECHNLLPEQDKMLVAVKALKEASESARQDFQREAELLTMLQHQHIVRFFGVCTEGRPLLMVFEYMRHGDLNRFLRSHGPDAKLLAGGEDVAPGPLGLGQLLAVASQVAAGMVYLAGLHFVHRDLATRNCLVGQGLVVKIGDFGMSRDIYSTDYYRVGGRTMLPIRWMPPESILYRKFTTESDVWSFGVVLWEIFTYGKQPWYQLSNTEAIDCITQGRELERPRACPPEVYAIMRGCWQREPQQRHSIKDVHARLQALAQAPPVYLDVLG

For orientation: pIC50 means −log10 of the IC50, conventionally taken in molar units. Take `COCCN1C[C@@H](NC(=O)Nc2c(C)c(-c3ccc(=O)n(C)c3)nn2-c2ccccc2)[C@H](c2ccc(F)c(Cl)c2)C1` (relative stereo) [Example 22, 1-(trans-4-(3-chloro-4-fluorophenyl)-1-(2-methoxyethyl)pyrrolidin-3-yl)-3-(4-methyl-3-(1-methyl-6-oxo-1,6-di hydropyridin-3-yl)-1-phenyl-1H-pyrazol-5-yl)urea]: in test [1], the pIC50 was above 7.00.
In the case of `COCCN1C[C@@H](NC(=O)Nc2c(C)c(-c3ccc(=O)n(C)c3)nn2-c2ccccc2)[C@H](c2ccc(Cl)c(F)c2)C1` (relative stereo) [Example 23, 1-(trans-4-(4-chloro-3-fluorophenyl)-1-(2-methoxyethyl)pyrrolidin-3-yl)-3-(4-methyl-3-(1-methyl-6-oxo-1,6-dihydropyridin-3-yl)-1-phenyl-1H-pyrazol-5-yl)urea], the pIC50 in test [1] is above 7.00.
Regarding `COCCN1C[C@@H](NC(=O)Nc2c(C)c(-c3ccc(=O)n(C)c3)nn2-c2ccccc2)[C@H](c2cc(F)cc(Cl)c2)C1` (relative stereo) [Example 24, 1-(trans-4-(3-chloro-5-fluorophenyl)-1-(2-methoxyethyl)pyrrolidin-3-yl)-3-(4-methyl-3-(1-methyl-6-oxo-1,6-di hydropyridin-3-yl)-1-phenyl-1H-pyrazol-5-yl)urea], the pIC50 in test [1] was above 7.00.
Still for that read-out and setting: the figure for `COCCN1C[C@@H](NC(=O)Nc2c(C)c(-c3ccc(=O)n(C)c3)nn2-c2ccccc2)[C@H](c2cccc(Cl)c2)C1` (relative stereo) [Example 25, 1-(trans-4-(3-chlorophenyl)-1-(2-methoxyethyl)pyrrolidin-3-yl)-3-(4-methyl-3-(1-methyl-6-oxo-1,6-di hydropyridin-3-yl)-1-phenyl-1H-pyrazol-5-yl)urea] is above 7.00.
Consider `COCCN1C[C@@H](NC(=O)Nc2c(C)c(-c3ccnc(C)c3)nn2-c2ccccc2)[C@H](c2ccc(F)c(F)c2)C1` [Example 2, 1-((3S,4R)-4-(3,4-difluorophenyl)-1-(2-methoxyethyl)pyrrolidin-3-yl)-3-(4-methyl-3-(2-methylpyridin-4-yl)-1-phenyl-1H-pyrazol-5-yl)urea], for which, in test [2], the “activity against off-target kinases” value is “largely inactive”; the “selectivity for inhibiting TrkA versus other kinases in the panel” value was “remarkable and unexpected selectivity”.
With `COCCN1C[C@@H](NC(=O)Nc2c(C)c(-c3cnc(C)nc3)nn2-c2ccccc2)[C@H](c2cc(F)cc(F)c2)C1` [Example 14, 1-((3S,4R)-4-(3,5-difluorophenyl)-1-(2-methoxyethyl)pyrrolidin-3-yl)-3-(4-methyl-3-(2-methylpyrimidin-5-yl)-1-phenyl-1H-pyrazol-5-yl)urea], in test [2], the “activity against off-target kinases” value was “largely inactive”; the “selectivity for inhibiting TrkA versus other kinases in the panel” value is “remarkable and unexpected selectivity”.
